Source: the supplement of paper PMC11061612

Tests used:
[1] = system: EW-1 (Ewing's Sarcoma); assay: Bliss excess, mean over the matrix (fraction); higher = more synergy
Procedure, shortened: (§1)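 Cell lines grown in DMEM/F12 or RPMI with 10% FBS were plated in 1536-well plates and held 24 hours at 37°C, 5% CO2 before 72 hours of exposure to two-drug dose matrices, with DMSO typically at 0.2%. CellTiter-Glo 2.0 luminescence gave viability, which was converted to inhibition. Vehicle wells were set to 0 and blank wells to 1. Combination Emax is the second-highest inhibition in the matrix, and Bliss excess is the observed combination effect minus the expected EA + EB − EA·EB, where EA and EB are the single-agent effects.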

[2] = system: HCC1937 (Breast Carcinoma); assay: as above
Procedure, shortened: as §1

[3] = system: HCC2998 (Colorectal Carcinoma); assay: as above
Procedure, shortened: as §1

[4] = system: Hey (Ovarian Carcinoma); assay: as above
Procedure, shortened: as §1

[5] = system: KOPN-8 (B-Lymphoblastic Leukemia); assay: as above
Procedure, shortened: as §1

[6] = system: LC-1-sq (Squamous Cell Lung Carcinoma); assay: as above
Procedure, shortened: as §1

[7] = system: NCI-H1092 (Small Cell Lung Carcinoma); assay: as above
Procedure, shortened: as §1

[8] = system: NCI-H1838 (Lung Adenocarcinoma); assay: as above
Procedure, shortened: as §1

[9] = system: NCI-H2122 (Lung Adenocarcinoma); assay: as above
Procedure, shortened: as §1

[10] = system: NCI-H650 (Lung Adenocarcinoma); assay: as above
Procedure, shortened: as §1

[11] = system: OACM5-1 (Esophageal Adenocarcinoma); assay: as above
Procedure, shortened: as §1

[12] = system: Ca-Ski (Cervical Carcinoma); assay: combination Emax (second highest fraction inhibited in the dose matrix, 72 h); higher = more inhibition; extreme values may be limits of the assay
Procedure, shortened: as §1

[13] = system: HAL-01 (B-Lymphoblastic Leukemia); assay: as above
Procedure, shortened: as §1

[14] = system: MDA-MB-453 (Breast Carcinoma); assay: as above
Procedure, shortened: as §1

[15] = system: MV-4-11 (Acute Myeloid Leukemia); assay: as above
Procedure, shortened: as §1

[16] = system: NCI-H1993 (Lung Adenocarcinoma); assay: as above
Procedure, shortened: as §1

[17] = system: NCI-H522 (Lung Adenocarcinoma); assay: as above
Procedure, shortened: as §1

[18] = system: OE33 (Esophageal Adenocarcinoma); assay: as above
Procedure, shortened: as §1

[19] = system: SK-N-AS (Neuroblastoma); assay: as above
Procedure, shortened: as §1

[20] = system: SKN (Other Solid Carcinomas); assay: as above
Procedure, shortened: as §1
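Wherever Bliss excess, mean over the matrix is given: after 72 h of two-drug dosing.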

Structure (SMILES) | Bliss excess [1] | Bliss excess [2] | Bliss excess [3] | Bliss excess [4] | Bliss excess [5] | Bliss excess [6] | Bliss excess [7] | Bliss excess [8] | Bliss excess [9] | Bliss excess [10] | Bliss excess [11] | combination Emax [12] | combination Emax [13] | combination Emax [14] | combination Emax [15] | combination Emax [16] | combination Emax [17] | combination Emax [18] | combination Emax [19] | combination Emax [20]
Cc1cc2ncnn2cc1Nc1ncc2c(n1)n(C1CCOCC1)c(=O)n2C [AZD7648] + O=C(c1cc(Cc2n[nH]c(=O)c3ccccc23)ccc1F)N1CCN(C(=O)C2CC2)CC1 [Olaparib] (first compound max 10 µM, 7x7, partner max 10 µM) | -0.0021 | -0.0498 | -0.023 | -0.0088 | 0.0196 | -0.042 | -0.025 | -0.0808 | -0.0124 | -0.0247 | -0.0505 | 0.142 | 0.472 | 0.281 | 0.446 | 0.331 | 0.17 | 0.218 | 0.102 | 0.131
CN(CCO)CC[C@H](CSc1ccccc1)Nc1ccc(S(=O)(=O)NC(=O)c2ccc(N3CCC([C@@H](O)c4ccccc4-c4ccc(Cl)cc4)CC3)cc2)cc1S(=O)(=O)C(F)(F)F [AZD4320] + Nc1ccn([C@@H]2O[C@H](CO)[C@@H](O)C2(F)F)c(=O)n1 [Gemcitabine] (first compound max 1 µM, 7x7, partner max 0.3 µM) | – | – | – | – | – | – | – | – | – | – | – | 0.91 | 1 | 0.731 | 1 | 0.937 | 0.224 | 0.586 | 0.672 | 0.783
CN(CCO)CC[C@H](CSc1ccccc1)Nc1ccc(S(=O)(=O)NC(=O)c2ccc(N3CCC([C@@H](O)c4ccccc4-c4ccc(Cl)cc4)CC3)cc2)cc1S(=O)(=O)C(F)(F)F [AZD4320] + CCN(CCO)CCCOc1ccc2c(Nc3cc(CC(=O)Nc4cccc(F)c4)[nH]n3)ncnc2c1 [AZD2811] (first compound max 1 µM, 7x7, partner max 1 µM) | 0.146 | -0.0513 | 0.103 | -0.0022 | -0.0249 | 0.0294 | 0.0193 | 0.0003 | 0.0001 | -0.0457 | 0.0473 | 0.907 | 0.835 | 0.324 | 1 | 0.704 | 0.105 | 0.0773 | 0.391 | 0.613
CN(CCO)CC[C@H](CSc1ccccc1)Nc1ccc(S(=O)(=O)NC(=O)c2ccc(N3CCC([C@@H](O)c4ccccc4-c4ccc(Cl)cc4)CC3)cc2)cc1S(=O)(=O)C(F)(F)F [AZD4320] + C1CN(CCC1(C(=O)N[C@@H](CCO)C2=CC=C(C=C2)Cl)N)C3=NC=NC4=C3C=CN4 [Capivasertib] (first compound max 1 µM, 7x7, partner max 3 µM) | -0.0009 | -0.0881 | -0.0128 | -0.0385 | -0.0266 | -0.02 | -0.0476 | -0.0392 | -0.0234 | -0.0252 | -0.0272 | 0.766 | 0.761 | 0.596 | 1 | 0.791 | 0.049 | 0.0577 | 0.172 | 0.401
Cc1nc(Nc2ncc(C(=O)Nc3c(C)cccc3Cl)s2)cc(N2CCN(CCO)CC2)n1 [Dasatinib] + CC(=O)Nc1cccc(-n2c(=O)n(C3CC3)c(=O)c3c(Nc4ccc(I)cc4F)n(C)c(=O)c(C)c32)c1 [Trametinib] (first compound max 2 µM, 7x7, partner max 1 µM) | -0.0586 | -0.0262 | 0.111 | 0.001 | -0.188 | -0.0577 | -0.0494 | -0.0793 | 0.0119 | 0.121 | -0.0912 | 0.774 | 0.526 | 0.224 | 0.791 | 0.69 | 0.251 | 0.641 | 0.558 | 0.683
CN(CCO)CC[C@H](CSc1ccccc1)Nc1ccc(S(=O)(=O)NC(=O)c2ccc(N3CCC([C@@H](O)c4ccccc4-c4ccc(Cl)cc4)CC3)cc2)cc1S(=O)(=O)C(F)(F)F [AZD4320] + Cn1cnc2c(F)c(Nc3ccc(Br)cc3Cl)c(C(=O)NOCCO)cc21 [Selumetinib] (first compound max 1 µM, 7x7, partner max 3 µM) | 0.0387 | -0.0001 | 0.0449 | 0.0771 | 0.0821 | 0.0514 | -0.0193 | 0.0376 | 0.0399 | 0.119 | 0.0624 | 0.588 | 0.916 | 0.331 | 1 | 0.935 | 0.301 | 0.214 | 0.776 | 0.454
Cc1cc2ncnn2cc1Nc1ncc2c(n1)n(C1CCOCC1)c(=O)n2C [AZD7648] + CN(C)CCCOc1ccc(-c2ccc3ncc4c(c3c2)n(C2CCOCC2)c(=O)n4C)cn1 [AZD0156] (first compound max 10 µM, 7x7, partner max 1 µM) | 0.0734 | -0.0129 | 0.0329 | 0.0367 | 0.0351 | 0.03 | -0.0312 | 0.0203 | 0.0426 | 0.0061 | 0.0206 | 0.296 | 0.398 | 0.325 | 0.484 | 0.517 | 0.164 | 0.256 | 0.245 | 0.264
N#Cc1cnc(Nc2cc(NC[C@H]3CNCCO3)c(C(F)(F)F)cn2)cn1 [SRA737] + C=CCn1c(=O)c2cnc(Nc3ccc(N4CCN(C)CC4)cc3)nc2n1-c1cccc(C(C)(C)O)n1 [AZD1775] (first compound max 10 µM, partner max 1 µM) | – | – | – | – | – | – | – | – | – | – | – | 0.846 | 1 | 0.667 | 0.931 | 0.88 | 0.402 | 0.765 | 0.811 | 0.518
Cc1c2c(nn1C)CSCc1cc(n(C)n1)CSc1cc(c3ccccc3c1)OCCCc1c(C(=O)O)n(C)c3c-2c(Cl)ccc13 [AZD5991] + Cn1cnc2c(F)c(Nc3ccc(Br)cc3Cl)c(C(=O)NOCCO)cc21 [Selumetinib] (first compound max 1 µM, 7x7, partner max 3 µM) | -0.0044 | 0.0328 | 0.0417 | -0.0033 | 0.0258 | 0.0393 | -0.03 | 0.003 | 0.028 | 0.0222 | 0.0491 | 0.633 | 0.624 | 0.289 | 1 | 0.511 | 0.409 | 0.19 | 0.876 | –
N#Cc1cnc(Nc2cc(NC[C@H]3CNCCO3)c(C(F)(F)F)cn2)cn1 [SRA737] + CCc1c2c(nc3ccc(O)cc13)-c1cc3c(c(=O)n1C2)COC(=O)[C@]3(O)CC [SN-38] (first compound max 10 µM, 7x7, partner max 0.3 µM) | – | – | – | – | – | – | – | – | – | – | – | 0.992 | 1 | 0.719 | 0.996 | 0.835 | 0.635 | 0.8 | 0.763 | 0.749
N#Cc1cnc(Nc2cc(NC[C@H]3CNCCO3)c(C(F)(F)F)cn2)cn1 [SRA737] + O=c1[nH]cc(F)c(=O)[nH]1 [5-Fluorouracil] (first compound max 10 µM, 7x7, partner max 20 µM) | – | – | – | – | – | – | – | – | – | – | – | 0.862 | 1 | 0.534 | 0.967 | 0.76 | 0.0376 | 0.721 | 0.565 | 0.361
CN(CCO)CC[C@H](CSc1ccccc1)Nc1ccc(S(=O)(=O)NC(=O)c2ccc(N3CCC([C@@H](O)c4ccccc4-c4ccc(Cl)cc4)CC3)cc2)cc1S(=O)(=O)C(F)(F)F [AZD4320] + CC(=O)O[C@H]1C(=O)[C@@]2(C)[C@H]([C@H](OC(=O)c3ccccc3)[C@]3(O)C[C@H](OC(=O)[C@H](O)[C@@H](NC(=O)c4ccccc4)c4ccccc4)C(C)=C1C3(C)C)[C@]1(OC(C)=O)CO[C@@H]1C[C@@H]2O [Paclitaxel] (first compound max 1 µM, 7x7, partner max 3 µM) | – | – | – | – | – | – | – | – | – | – | – | 1 | 0.999 | 0.901 | 1 | 0.984 | 0.882 | 0.678 | 0.884 | 0.978
N#Cc1cnc(Nc2cc(NC[C@H]3CNCCO3)c(C(F)(F)F)cn2)cn1 [SRA737] + Nc1ccn([C@@H]2O[C@H](CO)[C@@H](O)C2(F)F)c(=O)n1 [Gemcitabine] (first compound max 10 µM, 7x7, partner max 0.3 µM) | – | – | – | – | – | – | – | – | – | – | – | 0.815 | 1 | 0.542 | 1 | 0.939 | 0.855 | 0.678 | 0.712 | 0.729
Cc1cc2ncnn2cc1Nc1ncc2c(n1)n(C1CCOCC1)c(=O)n2C [AZD7648] + COc1cc([C@@H]2c3cc4c(cc3[C@@H](O[C@@H]3O[C@@H]5CO[C@@H](C)O[C@H]5[C@H](O)[C@H]3O)[C@H]3COC(=O)[C@H]23)OCO4)cc(OC)c1O [Etoposide] (first compound max 10 µM, 7x7, partner max 10 µM) | – | – | – | – | – | – | – | – | – | – | – | 0.884 | 1 | 0.497 | 1 | 0.79 | 0.339 | 0.504 | 0.472 | 0.784
